The text below walks through data of patent US4812443A, “Methods for enhancing differentiation and proliferation of hematopoietic progenitor cells” (Kuraray Co., Ltd., priority 1984, dated 1989).

One data set concerns mice. The experiment in a line: Acute toxicity of dolichol in mice. The data set is classed as in vivo, mouse (ddY-strain). To be noted: 5,000 mg/kg orally or 1,000 mg/kg intraperitoneally. How it is done:
(1) Dolichol synthesized in Referential Example 1 below was used as a solution in sesame oil in the case of oral administration, or as a suspension in HCO-60 (a trade name for a nonionic surfactant made by Nikko Chemical Co., Ltd.) in the case of intraperitoneal administration.
ddY-strain mice (21-27 g), 6 per group, were used. Dolichol was administered to the mice in a dose of 5,000 mg/kg orally, or 1,000 mg/kg intraperitoneally on the 1st day of the test, and the mice were then observed for toxic symptoms and mortality for seven days. The body weights of the mice were measured before administration and on the 1st and 7th days. Control groups were each given sesame oil or HCO-60, and observed and weighed in the same way as in the case of the groups to which dolichol was administered. On the 7th day, all the mice were dissected and visually observed.

The subject of another data set is blood coagulation system. The experiment in a line: Effect on the blood coagulation system in rats (Quick's one-step method). To be noted: 150, 300 and 600 mg/kg; two hours after administration; vs control. The data set is classed as in vivo, rat (Wistar-strain). An excerpt: (§1) Since the dolichol is a water-insoluble oily liquid, it was used as a solution in sesame oil in the case of oral administration, and as a suspension in a nonionic surfactant (HCO-60, a trade name for a product of Nikko Chemical Co., Ltd.) in the case of intraperitoneal administration and in an in vitro test in the following experiment.
(§2) In the following experiment, ddY-strain male mice, Wistar-strain male rats (Shizuoka Laboratory Animal Center), Japanese white male rabbits (Carely) and Hartley-strain male guinea pigs (Clea Japan Inc.) were used. The animals were kept under conditions including a temperature of 23±1° C., a humidity of 55±10%, an illuminating time (7:00 am to 9.00 pm) and 15 ventilations per hour. The mice and rats were fed with solid feeds MF (a product of Oriental Yeast Co., Ltd.) and the guinea pigs and rabbits were fed with solid feeds GM-3 and RM-1 (Funabashi Farm Co.). They were allowed to take tap water freely. The animals were preliminarily kept for more than one week, and those which were healthy in general conditions were used in the experiments.
Wistar-strain male rats (180-210 g), 6 per group, were used. Two hours after administration of dolichol to rats, the blood was taken from the abdominal main vein of the rats, and the prothrombin time was measured by the Quick's one-step method.

Data set [1] has as its system maximal electroshock seizure. The experiment in a line: Anticonvulsive action (maximal electroshock seizure) in mice. To be noted: 150, 300 and 600 mg/kg; one hour after administration; 40 mA, 0.4 msec, 50 Hz, 0.5 sec; vs control. Type of data set: in vivo, mouse (ddY-strain).
Source text: as §1, §2
ddY-male mice (27-30 g), 6 per group, were used. One hour after administration of dolichol to the mice, an electric current was passed through the corneas of the mice under conditions of 40 mA, 0.4 msec, 50 Hz and 0.5 sec, and the time of duration of tonic extension (T. E.) was measured.
For orientation: Protection in the maximal electroshock model is a classic sign of anticonvulsant action.

In data set [2] the test system is late erythrocytic progenitor cells (CFU-e). The experiment in a line: Differentiation and proliferation of late erythrocytic progenitor cells (CFU-e), cluster colony formation. The data set is classed as cell-based, mouse (BDF1-strain). To be noted: 20 μg/ml, Runs 2 to 4. How it is done:
The mouse bone marrow cells used in the following experiments were all prepared as follows:
BDF1 -strain mice (female, 8 to 10 weeks old) were killed by cervical dislocation, and the femurs were collected under sterile conditions. The bone marrow cells were flushed out from the femurs with α-medium, and formed into a single cell suspension by repeated aspiration with a 26-gauge needle fitted to a 1 ml-syringe. The cells were washed two times with α-medium by centrifugation at 200×G for 5 minutes and used in the following experiments.
In accordance with the method of Murphy et al. mentioned above, mouse bone marrow cells were plated at 2.5×10^4 nuclear cells into 0.5 ml of α-medium containing 0.25 unit of erythropoietin, 30% fetal bovine serum, 1% bovine serum albumin, 0.1 mM 2-mercaptoethanol and 0.4% methyl cellulose with 10 μg of dolichol dissolved in 1 μl of ethanol, 10 μg of dolichyl phosphate dispersed in 0.5 μl of dimethyl sulfoxide, 1 μl of ethanol or 0.5 μl of dimethyl sulfoxide in a 16 mm.phi. tissue culture plate, and incubated at 37° C. in a humidified atmosphere of 5% carbon dioxide in air for 2 days. The number of cluster colonies consisting of 8 to 64 erythroblasts derived from CFU-e in the tissue culture plate was scored with an inverted microscope. The experiment was carried out by 6 replica assays for each group, and the average number of the colonies formed was determined. The results are shown in Table 3, in the rows of Runs 2 to 4.

For the next data set, the system named is corneal reflex. The data set can be described thus: Local anesthetic action in guinea pigs (corneal reflex). To be noted: up to 0.1%, dropped into the eyes. Type of data set: in vivo, guinea pig (Hartley-strain).
Source text: as §1, §2
Hartley-strain male guinea pigs (370-440 g), 3 per group, were used. Dolichol was dropped in a concentration of 0.001%, 0.01% and 0.1%, respectively, into the eyes of the guinea pigs. […]

Another data set deals with blood sugar. The data set can be described thus: Blood sugar lowering action in rats (glucose-oxidase method). To be noted: 150, 300 and 600 mg/kg; two hours after administration; vs control. The data set is classed as in vivo, rat (Wistar-strain).
Source text: as §1, §2
Wistar-strain male rats (180-210 g), 6 per group, were used. Two hours after administration of dolichol to the rats, the blood was taken from the abdominal main vein of the rats, and the blood sugar level was measured by the glucose-oxidase method.

The next data set deals with extracted atrium. The data set can be described thus: Peripheral action, extracted atrium of guinea pigs. Set-up: species or system guinea pig (Hartley-strain). To be noted: 10^-6, 10^-5 and 10^-4 g/ml; 30° C.
Source text: as §1, §2
Hartley-strain male guinea pigs (350-400 g), 3 per group, were used. […] The contraction of the atria was recorded on an ink-writing oscillograph (EMP-3004, Nippon Photoelectric Co.) through an FD pick-up (TB-611T, Nippon Photoelectric Co.). […]

“Also recorded” adds a separate entry of the source.

On to dolichol, for which, in the data set with mice (1st and 7th days, vs control), the “Changes in body weight” value is “no sigificant difference was noted”. The Abnormality in dissection entry in the data set with mice (7th day) is “No abnormality was noted”. Moreover, in the data set on mice (seven days), the Mortality entry is given as “no case of death in all of the mice tested”. Further, the Prothrombin time result with blood coagulation system is reported as “tended to become longer; also recorded: no significant difference was noted”. Further, the “Time of duration of tonic extension (T. E.)” value in data set [1] was “no significant difference was noted”. The “Number of colonies formed in the dolichols-added group (CFU-e)” value in data set [2] (2 days, erythropoietin 0.25 unit, mean ± S.E., 6 replicas, solvent controls 124.2 ± 2.7, 246.0 ± 5.0, 124.7 ± 2.9) amounted to 151.0 ± 2.2. Further, the “Percent increase (%) of colony formation (CFU-e)” value in data set [2] (vs solvent-added control group) is given as “+21.6%”. Moreover, in the data set with corneal reflex, the “Disappearance of corneal reflex” value was “no disappearance of corneal reflex” and the Local anesthetic action result is “no local anesthetic action was observed”. Further, the Blood sugar level entry with blood sugar is “no significant difference was noted”. For the same substance, in the data set on extracted atrium, the Chronotropic action entry is recorded as “nor chronotropic action” and the Inotropic action entry is on record as “no inotropic”.
